# Numbering of substitutions follows the chain as printed. Values joined by “and” are separate entries in the source; they are usually repeats but may differ in a detail not shown here. Identical values can stand only once.
# Tests used:
# Assay in all cases: filter binding assay of [14C] N-AS to COX2
# Conditions in all cases: replicates
# [1] = biological target: T1, COX2 T564A (Homo sapiens, UniProt P35354, T564A)
# T1 construct: His (N); made in house
# T1 sequence (P35354 18-604 T564A): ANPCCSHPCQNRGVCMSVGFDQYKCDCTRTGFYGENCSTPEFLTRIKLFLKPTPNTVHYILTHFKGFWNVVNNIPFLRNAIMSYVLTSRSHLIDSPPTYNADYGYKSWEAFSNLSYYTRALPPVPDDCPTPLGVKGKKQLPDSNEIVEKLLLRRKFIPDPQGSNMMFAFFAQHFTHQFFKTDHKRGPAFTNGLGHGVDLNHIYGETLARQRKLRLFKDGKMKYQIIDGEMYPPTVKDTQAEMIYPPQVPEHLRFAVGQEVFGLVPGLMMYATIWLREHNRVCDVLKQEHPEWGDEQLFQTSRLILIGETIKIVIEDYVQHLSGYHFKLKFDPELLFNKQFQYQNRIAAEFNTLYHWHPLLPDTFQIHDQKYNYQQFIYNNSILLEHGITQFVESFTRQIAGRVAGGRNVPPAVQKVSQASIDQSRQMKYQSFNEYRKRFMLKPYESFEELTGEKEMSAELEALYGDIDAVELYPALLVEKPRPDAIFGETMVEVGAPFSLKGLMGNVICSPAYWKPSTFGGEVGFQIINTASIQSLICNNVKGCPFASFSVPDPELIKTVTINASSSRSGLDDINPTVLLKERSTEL
# From the text: (§1) Single point mutations in SphK1 (R56A, R57A, R24A, R185A, D178A, and F192A) and COX2 (S565A, N181A, T564A, and S567A) were generated using the In-Fusion Cloning Kits (Clontech) and ORF cDNA expression plasmids of human SphK1 and COX2 gene (Sino Biological Inc, HG15679-NH and HG12036-NH), according to the manufacturer’s instructions. The forward and reverse primers described in Supplementary Table 4. The SphK1 WT, SphK1 mutants, COX2 WT, and COX2 mutant plasmids were transformed in the One shot TOP 10 competent cell (Invitrogen). The bacteria were grown in Luria-Bertani (LB, Invitrogen) plates supplemented with 50 μg ml^−1 kanamycin (Sigma-Aldrich) at 37 °C. The bacterial cell pellets were resuspended in lysis buffer containing 20 mM sodium phosphate (GE Healthcare), 500 mM NaCl (GE Healthcare), 20 mM imidazole (pH 7.4) (GE Healthcare), 0.2 mg ml^−1 lysozyme (Sigma-Aldrich), 20 μg ml^−1 DNase I (Roche), 1 mM MgCl2 (Sigma-Aldrich), and 1 mM PMSF (Sigma-Aldrich) before being lysed by sonication and clarified by centrifugation at 15,493×g for 10 min. Proteins were purified from the soluble fraction using His-Spin Trap columns (GE Healthcare) and the binding and acetylation assays were performed.
# (§2) Briefly, SphK1 WT and mutant enzymes (1 mU) were resuspended in 100 μl reaction buffer (20 mM HEPES; pH 7.4, 50 mM NaCl, 10 mM MgCl2, 1 mM EGTA, 0.02% Triton-X100, and 100 μM sphingosine, all from Sigma-Aldrich). […] Briefly, COX2 WT and mutant enzymes (1 mU) were resuspended in 100 μl reaction buffer (20 mM HEPES; pH 7.4, 50 mM NaCl, 10 mM MgCl2, 1 mM EGTA, and 0.02% Triton-X100, all from Sigma-Aldrich). Reactions were initiated by adding [^14C] N-AS (1–200 μM (0.1–20 μCi), ARC UK Ltd, ARC-1024) and incubated at 37 °C for 1 h. The reactions were terminated by adding 100 μl of ice-cold reaction buffer containing 5 mM cold N-AS and immediately filtered through P30 filtermat (Perkin-Elmer), followed by five washes.
# (§3) The binding velocity was plotted and the Kcat and KM values were calculated from the Michaelis-Menten analysis using the Sigma-plot program (ver 10.0, Systat software Inc.).
# [2] = biological target: T2, COX2 S567A (Homo sapiens, UniProt P35354, S567A)
# T2 construct: His (N); made in house
# T2 sequence (P35354 18-604 S567A): T1 sequence (P35354 18-604 T564A) with A547T, S550A
# From the text: as §1, §2, §3
# [3] = biological target: T3, COX2 S565A (Homo sapiens, UniProt P35354, S565A)
# T3 construct: His (N); made in house
# T3 sequence (P35354 18-604 S565A): T1 sequence (P35354 18-604 T564A) with A547T, S548A
# From the text: as §1, §2, §3
compound,measurement,setting,value
"CCCCCCCCCCCCC/C=C/[C@@H](O)[C@H](CO)NC(C)=O [N-AS, N-((2S,3R,E)-1,3-Dihydroxyoctadec-4-en-2-yl)acetamide]",binding velocity (Vbinding),[1]; 1 uM,0.251 nM/min and 0.379 nM/min and 0.622 nM/min
same,binding velocity (Vbinding),[1]; 5 uM,7.230 nM/min and 6.808 nM/min and 11.168 nM/min
same,binding velocity (Vbinding),[1]; 10 uM,7.378 nM/min and 8.069 nM/min and 9.338 nM/min
same,binding velocity (Vbinding),[1]; 20 uM,12.382 nM/min and 16.697 nM/min and 16.993 nM/min
same,binding velocity (Vbinding),[1]; 100 uM,28.376 nM/min and 29.582 nM/min and 24.951 nM/min
same,binding velocity (Vbinding),[1]; 200 uM,37.587 nM/min and 41.759 nM/min and 47.017 nM/min
same,binding velocity (Vbinding),[2]; 0.2 uM,0.844 nM/min and 0.872 nM/min and 0.519 nM/min
same,binding velocity (Vbinding),[2]; 1 uM,1.046 nM/min
same,binding velocity (Vbinding),[3]; 1 uM,0.294 nM/min and 0.145 nM/min and 0.375 nM/min
same,binding velocity (Vbinding),[3]; 5 uM,4.092 nM/min and 3.850 nM/min and 4.567 nM/min
same,binding velocity (Vbinding),[3]; 10 uM,6.171 nM/min and 6.000 nM/min and 6.819 nM/min
same,binding velocity (Vbinding),[3]; 20 uM,11.138 nM/min and 12.964 nM/min and 8.904 nM/min
same,binding velocity (Vbinding),[3]; 100 uM,19.545 nM/min and 19.934 nM/min and 20.173 nM/min
same,binding velocity (Vbinding),[3]; 200 uM,28.985 nM/min and 29.725 nM/min and 29.810 nM/min

# From article PMC7217877, “N-AS-triggered SPMs are direct regulators of microglia in a model of Alzheimer’s disease” (Nature Communications, 2020)
